Assay results taken from patent US20040191239A1, “Treatment and prevention of reactive oxygen metabolite-mediated cellular damage” (priority 1999, published 2004).

Key:
ROMs = conditions: predictive example; about 10 μg/kg/day subcutaneous as in Example 3
Experimental: Histamine, a H2-receptor agonist, at approximately 10 μg/kg/day, in a pharmaceutically acceptable form is introduced by subcutaneous injection into a subject experiencing or about to experience MI. The above procedure is repeated daily for 7 days.
Histamine is administered to a patient presenting subendocardial myocardial infarction, as described in Example 3.

[1] = Histamine administration time: efficacy and side effects; conditions: administered over longer than about 30 minutes
NADPH oxidase = NADPH oxidase (Homo sapiens, UniProt P04839); conditions: substrate of the membrane-bound oxidase; cited from earlier work
[2] = cited from earlier work
[3] = system: brain tissue and cerebral vessels; conditions: cited from earlier work
HCV = conditions: cited from earlier work

NCCc1c[nH]cn1 [Histamine, histamine]
release or production of ROMs (ROMs): prevention of the release or production of ROMs | efficacy [1]: decreased or lack of efficacy

NC(=O)C1=CN([C@@H]2O[C@H](COP(=O)(O)OP(=O)(O)OC[C@H]3O[C@@H](n4cnc5c(N)ncnc54)[C@H](O)[C@@H]3O)[C@@H](O)[C@H]2O)C=CC1 [NADH]
Km (NADPH oxidase): 450 µM

NC(=O)C1=CN([C@@H]2O[C@H](COP(=O)(O)OP(=O)(O)OC[C@H]3O[C@@H](n4cnc5c(N)ncnc54)[C@H](OP(=O)(O)O)[C@@H]3O)[C@@H](O)[C@H]2O)C=CC1 [NADPH]
Km (NADPH oxidase): 45 µM

C#CCN(C)[C@H](C)Cc1ccccc1 [selegiline, L-deprenyl]
memory ([2]; 173 people, after six months): improved significantly | effect on the benefits of tacrine (Cognex) ([2]; another study, combination with tacrine): enhanced the benefits of tacrine | NO production ([3]; brain tissue and cerebral vessels): rapid increases in NO production | protection of the vascular endothelium ([3]; toxic effects of amyloid-beta peptide): protected the vascular endothelium

alpha-interferon
effectiveness in patients with HCV (HCV; chronic HCV infection): minimally effective | patients experiencing flu-like symptoms (HCV; in vivo): 60-80% | responding patients relapsing to a more progressive disease state (HCV; in vivo): approximately 70%
